Experimental data taken from patent publication US10221163B2 (priority 2015, dated 2019).
pIC50: −log10 of the molar value. Structures can show the parent of a compound that is named as a salt. Where two headings read alike, the source gives them in different places.

How the values were obtained:
[1] = molecular target: VIM-1 (Pseudomonas aeruginosa (strain ATCC 15692 / DSM 22644 / CIP 104116 / JCM 14847 / LMG 12228 / 1C / PRS 101 / PAO1), UniProt A0A0F7KYQ8); assay: biochemical; details: CCF2-FA substrate, 30 pM enzyme, 2 hours at 25° C.
How it was run: (§1)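 Class B activity is measured in the presence of compound by fluorescence with CCF2-FA after a 2-hour incubation at 25° C. IC50 is taken from a 4-parameter fit of semi-logarithmic dose-response data.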

[2] = system: Pseudomonas aeruginosa MB9798 vs MB9799
How it was run: (§2)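 P. aeruginosa PAO1-derived IMP-1 strains, efflux+ MB9798 and efflux− MB9799, tested by standard microbroth MIC with imipenem and/or ceftazidime fixed, usually at CLSI breakpoint, plus fixed class A/C β-lactamase inhibitor against AmpC. Inhibitor titrated; concentration restoring susceptibility recorded; MB9798/MB9799 fold difference indicates efflux.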

[3] = molecular target: NDM-1 (Klebsiella pneumoniae, UniProt C7C422); assay: biochemical; type: biochemical; details: fluorescence assay, CCF2-FA substrate, 1 pM enzyme, 2 hours at 25° C., read-out: NDM-1 IC50
Chain of NDM-1 (C7C422 whole entry, looked up, species assumed): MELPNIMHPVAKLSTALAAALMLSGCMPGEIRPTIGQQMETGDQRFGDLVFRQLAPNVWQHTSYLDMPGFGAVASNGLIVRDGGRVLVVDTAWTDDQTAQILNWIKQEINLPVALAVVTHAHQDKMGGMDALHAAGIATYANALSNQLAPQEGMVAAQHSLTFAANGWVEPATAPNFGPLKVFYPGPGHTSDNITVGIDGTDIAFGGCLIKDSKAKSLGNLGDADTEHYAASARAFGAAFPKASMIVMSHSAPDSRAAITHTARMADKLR
How it was run: as §1

[4] = molecular target: IMP-1 (Serratia marcescens, UniProt P52699); assay: biochemical; type: biochemical; details: fluorescence assay, CCF2-FA substrate, 2 pM enzyme, 2 hours at 25° C., read-out: IMP-1 IC50
Chain of IMP-1 (P52699 whole entry, looked up, species assumed): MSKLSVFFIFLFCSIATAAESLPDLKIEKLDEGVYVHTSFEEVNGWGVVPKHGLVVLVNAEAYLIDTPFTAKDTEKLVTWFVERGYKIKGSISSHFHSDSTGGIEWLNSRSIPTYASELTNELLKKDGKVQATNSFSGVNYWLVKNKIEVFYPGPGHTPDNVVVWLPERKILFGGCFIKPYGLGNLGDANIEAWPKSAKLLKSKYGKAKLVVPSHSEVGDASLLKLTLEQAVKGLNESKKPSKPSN
How it was run: as §1

[5] = system: Pseudomonas aeruginosa efflux+ (MB9798), IMP-1; type: cell-based; parameters: Concentration of metallo-β-lactamase inhibitor which restores susceptibility of efflux + (MB9798) strain to imipenem: unit not given here; details: C, D serine β-lactamase inhibitor closely related to relebactam; for Concentration of metallo-β-lactamase inhibitor which restores susceptibility of efflux + (MB9798) strain to imipenem: imipenem at 2 μg/mL, in the presence of a class A; for P. aeruginosa expressing IMP-1, efflux + (MB9798) MITC95: concentration restoring susceptibility to imipenem at 2 μg/mL in the presence of a class A
How it was run: as §2

[6] = system: Serratia marcescens expressing IMP-1 (CL5741); type: cell-based; details: for Serratia marcescens MITC95: IMP-1 strain CL5741, with imipenem 1 μg/ml, 95% inhibition of growth; for Serratia marcescens expressing IMP-1 (CL5741) MITC95: with imipenem 1 μg/ml, 95% inhibition of bacterial growth
How it was run: (§3)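 Colonies grown overnight on blood agar at 35° C were suspended in saline, diluted 1:100 into 1.1×CAMHB and dispensed. Imipenem was added to 1 μg/ml, then test compound. After 22 hours to 24 hours at 35° C, absorbance was recorded.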

[7] = system: Escherichia coli expressing NDM-1 (CLB30005, CLB30016); type: cell-based; details: with imipenem 1 μg/ml; for Escherichia coli MITC95: NDM-1 strain, 95% inhibition of growth; for Escherichia coli expressing NDM-1 (CLB30016) MITC95: 95% inhibition of bacterial growth
How it was run: as §3

[8] = system: Klebsiella pneumoniae expressing VIM-1 (IHMA599644); type: cell-based; details: for Klebsiella pneumoniae MITC95: VIM-1 strain IHMA599644, with imipenem 1 μg/ml, 95% inhibition of growth; for Klebsiella pneumoniae expressing VIM-1 (IHMA599644) MITC95: with imipenem 1 μg/ml, 95% inhibition of bacterial growth
How it was run: as §3

[9] = system: Pseudomonas aeruginosa efflux− (MB9799), IMP-1; type: cell-based; details: C, D serine β-lactamase inhibitor closely related to relebactam; for Concentration of metallo-β-lactamase inhibitor which restores susceptibility of efflux − (MB9799) strain to imipenem: imipenem at 2 μg/mL, in the presence of a class A; for P. aeruginosa expressing IMP-1, efflux − (MB9799) MITC95: concentration restoring susceptibility to imipenem at 2 μg/mL in the presence of a class A
How it was run: as §2

[10] = fluorescence assay, read-out: VIM-1 IC50
[11] = ratio MITC95 PA_9798/MITC95 PA_9799

SMILES	pIC50 ([1]; VIM-1 IC50, fluorescence assay)	Serratia marcescens MITC95 [6] [µM]	Klebsiella pneumoniae MITC95 [8] [µM]	pIC50 [1, 10]	Efflux ratio [2, 11]	pIC50 [3]	pIC50 [4]	P. aeruginosa expressing IMP-1, efflux + (MB9798) MITC95 [5] [µM]	Serratia marcescens expressing IMP-1 (CL5741) MITC95 [6] [µM]	Escherichia coli expressing NDM-1 (CLB30016) MITC95 [7] [µM]	Klebsiella pneumoniae expressing VIM-1 (IHMA599644) MITC95 [8] [µM]	P. aeruginosa expressing IMP-1, efflux − (MB9799) MITC95 [9] [µM]	Escherichia coli MITC95 [7] [µM]	also measured
NCC1(NS(=O)(=O)c2ccc(-c3ccc(N)nc3)c(-c3nn[nH]n3)c2S(N)(=O)=O)CCNC1 (stereo in doubt) [Example 486, (R)-N1-(3-(aminomethyl)pyrrolidin-3-yl)-4-(6-aminopyridin-3-yl)-3-(2H-tetrazol-5-yl)benzene-1,2-disulfonamide dihydrochloride]	9.49	0.7813	1.563											Efflux ratio ([2]; fold difference between efflux+ (MB9798) and efflux− (MB9799) strains, imipenem at 2 μg/mL, dihydrochloride): 2.00; pIC50 ([3]; dihydrochloride): 9.76; pIC50 ([4]; dihydrochloride): 9.37; Concentration of metallo-β-lactamase inhibitor which restores susceptibility of efflux + (MB9798) strain to imipenem [5]: 1.563; Escherichia coli MITC95 ([7]; dihydrochloride): 0.7813 µM; Concentration of metallo-β-lactamase inhibitor which restores susceptibility of efflux − (MB9799) strain to imipenem ([9]; dihydrochloride): 0.7813
NCCNC(=O)c1cccc(-c2ccc(S(=O)(=O)NCCN)c(S(N)(=O)=O)c2-c2nn[nH]n2)c1N [Example 204, 2-amino-N-(2-aminoethyl)-4′-(N-(2-aminoethyl)sulfamoyl)-5′-sulfamoyl-6′-(2H-tetrazol-5-yl)biphenyl-3-carboxamide]				9.65	1.00	9.28	8.59	0.7813	1.563	1.563	1.563	0.7813		
NC(=O)c1nc2c(-c3ccc(S(=O)(=O)N[C@@H]4CCNC4)c(S(N)(=O)=O)c3-c3nn[nH]n3)cccc2[nH]1 [Example 271, (R)-4-(4-(N-(pyrrolidin-3-yl)sulfamoyl)-3-sulfamoyl-2-(2H-tetrazol-5-yl)phenyl)-1H-benzo[d]imidazole-2-carboxamide]		0.7813	3.125	10.00	0.50	10.71	9.57	0.7813				1.563	1.563	
NC[C@H](N)CNS(=O)(=O)c1ccc(-c2cnc3cc[nH]c3c2)c(-c2nn[nH]n2)c1S(N)(=O)=O [Example 373, (S)-N1-(2,3-diaminopropyl)-4-(1H-pyrrolo[3,2-b]pyridin-6-yl)-3-(2H-tetrazol-5-yl)benzene-1,2-disulfonamide]	9.92	1.563	3.125		1.00	10.29	9.31	1.563				1.563	0.3906	
Nc1nc2c(-c3ccc(S(=O)(=O)NCC4(O)CCNCC4)c(S(N)(=O)=O)c3-c3nnn[nH]3)cccc2s1 [Example 86, 4-(2-aminobenzo[d]thiazol-4-yl)-N^1-((4-hydroxypiperidin-4-yl)methyl)-3-(1H-tetrazol-5-yl)benzene-1,2-disulfonamide]				10.12	0.50	10.56	9.89	0.7813	1.563	1.563	6.25	1.563		
NCCNS(=O)(=O)c1ccc(-c2cccc(NC[C@H](O)CN)c2)c(-c2nn[nH]n2)c1S(N)(=O)=O [Example 351, (R)-3′-((3-amino-2-hydroxypropyl)amino)-N4-(2-aminoethyl)-2-(2H-tetrazol-5-yl)-[1,1′-biphenyl]-3,4-disulfonamide]	9.34	1.563	1.563		2.00	8.87	8.45	1.563				0.7813	0.7813	
NCC(CN)NS(=O)(=O)c1ccc(-c2cccc3[nH]nnc23)c(-c2nn[nH]n2)c1S(N)(=O)=O [Example 403]	9.76	1.563	3.125			10.20	9.27						1.563	Efflux ratio ([2]; fold difference between efflux+ (MB9798) and efflux− (MB9799) strains, imipenem at 2 μg/mL): 1.00; Concentration of metallo-β-lactamase inhibitor which restores susceptibility of efflux + (MB9798) strain to imipenem [5]: 1.563; Concentration of metallo-β-lactamase inhibitor which restores susceptibility of efflux − (MB9799) strain to imipenem [9]: 1.563
CN1CC[C@H](CNS(=O)(=O)c2ccc(-c3cccc4sc(N)nc34)c(-c3nnn[nH]3)c2S(N)(=O)=O)C1 [Example 77, 4-(2-amino-1,3-benzothiazol-4-yl)-N1-{[(3S)-1-methylpyrrolidin-3-yl]methyl}-3-(1H-tetrazol-5-yl)benzene-1,2-disulfonamide]	9.88				0.50	10.47	9.78	0.7813	1.563	3.125	6.25	1.563		
Nc1nc2c(-c3ccc(S(=O)(=O)N[C@H]4CN[C@@H](C(=O)O)C4)c(S(N)(=O)=O)c3-c3nnn[nH]3)cccc2s1 [Example 82, (4R)-4-({[4-(2-amino-1,3-benzothiazol-4-yl)-2-sulfamoyl-3-(1H-tetrazol-5-yl)phenyl]sulfonyl}amino)-D-proline]	9.71				0.50	10.31	9.69	3.125	12.5	6.25	12.5	6.25		
Nc1nc2c(-c3ccc(S(=O)(=O)NC[C@@]4(N)CCNC4)c(S(N)(=O)=O)c3-c3nn[nH]n3)cccc2[nH]1 [Example 251, (R)-4-(2-amino-1H-benzo[d]imidazol-4-yl)-N1-((3-aminopyrrolidin-3-yl)methyl)-3-(2H-tetrazol-5-yl)benzene-1,2-disulfonamide]		0.7813	1.563	9.71	1.00	10.25	9.12	0.7813				0.7813	0.7813	
Nc1nc2c(-c3ccc(S(=O)(=O)N[C@@H]4CCNC4)c(S(N)(=O)=O)c3-c3nn[nH]n3)cccc2[nH]1 [Example 161, 4-(2-amino-1H-benzo[d]imidazol-4-yl)-N^1—((R)-pyrrolidin-3-yl)-3-(2H-tetrazol-5-yl)benzene-1,2-disulfonamide]				9.98	0.78	10.50	9.40	0.3993	0.5295	0.2995	0.8542	0.5139		
